Source: ChEMBL document CHEMBL1144675, “Stereospecific synthesis and bio-activity of novel beta(3)-adrenoceptor agonists and inverse agonists” (Bioorg Med Chem, 2008)
Active and inactive are the calls of the source. The calls are words filed in the database; no cut-off is given here.

What was measured:
[1] = target: Beta-1 adrenergic receptor (Homo sapiens) (UniProt P08588); test: Displacement of [3H]dihydroalprenolol from human adrenergic beta-1 receptor expressed in CHO cells at 10 uM; type: cell-based
Sequence of Beta-1 adrenergic receptor (Homo sapiens) (P08588 whole entry, looked up): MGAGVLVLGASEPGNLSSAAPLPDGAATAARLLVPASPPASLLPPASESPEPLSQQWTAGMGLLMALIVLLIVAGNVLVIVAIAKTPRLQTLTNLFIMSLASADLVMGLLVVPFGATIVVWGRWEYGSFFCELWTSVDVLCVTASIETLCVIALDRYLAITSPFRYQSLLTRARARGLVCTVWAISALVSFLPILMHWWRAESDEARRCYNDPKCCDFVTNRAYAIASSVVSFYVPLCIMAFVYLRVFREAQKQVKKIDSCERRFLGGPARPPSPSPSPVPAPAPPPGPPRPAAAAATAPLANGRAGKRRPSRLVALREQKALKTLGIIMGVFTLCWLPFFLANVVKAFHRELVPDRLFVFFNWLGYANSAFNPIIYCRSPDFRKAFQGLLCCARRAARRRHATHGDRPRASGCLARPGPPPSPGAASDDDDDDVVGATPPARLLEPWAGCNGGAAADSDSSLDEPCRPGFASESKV

[2] = target: Beta-2 adrenergic receptor (Homo sapiens) (UniProt P07550); test: Displacement of [3H]dihydroalprenolol from human adrenergic beta-2 receptor expressed in CHO cells at 10 uM; type: cell-based
Sequence of Beta-2 adrenergic receptor (Homo sapiens) (P07550 whole entry, looked up): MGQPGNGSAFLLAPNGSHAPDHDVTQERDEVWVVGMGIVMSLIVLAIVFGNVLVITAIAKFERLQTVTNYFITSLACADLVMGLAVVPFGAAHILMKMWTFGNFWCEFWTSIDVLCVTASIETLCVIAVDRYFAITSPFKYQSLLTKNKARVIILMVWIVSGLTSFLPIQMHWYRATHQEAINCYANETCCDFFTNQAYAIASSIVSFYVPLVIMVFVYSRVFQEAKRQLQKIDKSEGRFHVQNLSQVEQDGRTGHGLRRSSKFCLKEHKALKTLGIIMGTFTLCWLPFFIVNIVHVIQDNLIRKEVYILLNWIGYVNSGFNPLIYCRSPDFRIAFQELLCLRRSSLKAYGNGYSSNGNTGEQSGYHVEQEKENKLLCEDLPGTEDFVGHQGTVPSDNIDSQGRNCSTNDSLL

[3] = target: T1, Peroxisome proliferator-activated receptor alpha (Mus musculus) (UniProt P23204); test: Agonist activity at mouse PPARalpha receptor in monkey COS7 cells assessed as activation of CAT reporter gene at 50 uM by transactivation assay relative to Wy,14-643; type: functional, cell-based; conditions: COS-7
T1 sequence (whole entry): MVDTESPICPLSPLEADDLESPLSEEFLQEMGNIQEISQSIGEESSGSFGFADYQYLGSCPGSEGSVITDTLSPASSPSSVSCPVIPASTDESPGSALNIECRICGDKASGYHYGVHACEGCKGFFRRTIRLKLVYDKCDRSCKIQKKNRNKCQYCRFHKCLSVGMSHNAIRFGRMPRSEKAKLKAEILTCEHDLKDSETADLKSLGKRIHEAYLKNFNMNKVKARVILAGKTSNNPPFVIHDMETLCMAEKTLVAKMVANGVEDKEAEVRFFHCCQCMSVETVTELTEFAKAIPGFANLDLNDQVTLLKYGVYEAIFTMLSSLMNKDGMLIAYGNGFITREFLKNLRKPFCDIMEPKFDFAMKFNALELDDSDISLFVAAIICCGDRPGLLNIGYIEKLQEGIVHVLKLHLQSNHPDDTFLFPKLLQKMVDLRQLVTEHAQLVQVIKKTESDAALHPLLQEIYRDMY

[4] = target: T1, Peroxisome proliferator-activated receptor alpha (Mus musculus); test: Agonist activity at mouse PPARalpha receptor in monkey COS7 cells assessed as activation of CAT reporter gene at 150 uM by transactivation assay relative to Wy,14-643; type: functional, cell-based; conditions: COS-7
[5] = target: T1, Peroxisome proliferator-activated receptor alpha (Mus musculus); test: Agonist activity at mouse PPARalpha receptor in monkey COS7 cells assessed as activation of CAT reporter gene at 300 uM by transactivation assay relative to Wy,14-643; type: functional, cell-based; conditions: COS-7
[6] = target: T2, Beta-3 adrenergic receptor (Homo sapiens, UniProt P13945); test: Agonist activity at human adrenergic beta-3 receptor expressed in CHO cells assessed as cAMP levels by DELFIA method; type: functional, cell-based
T2 sequence (P13945 whole entry): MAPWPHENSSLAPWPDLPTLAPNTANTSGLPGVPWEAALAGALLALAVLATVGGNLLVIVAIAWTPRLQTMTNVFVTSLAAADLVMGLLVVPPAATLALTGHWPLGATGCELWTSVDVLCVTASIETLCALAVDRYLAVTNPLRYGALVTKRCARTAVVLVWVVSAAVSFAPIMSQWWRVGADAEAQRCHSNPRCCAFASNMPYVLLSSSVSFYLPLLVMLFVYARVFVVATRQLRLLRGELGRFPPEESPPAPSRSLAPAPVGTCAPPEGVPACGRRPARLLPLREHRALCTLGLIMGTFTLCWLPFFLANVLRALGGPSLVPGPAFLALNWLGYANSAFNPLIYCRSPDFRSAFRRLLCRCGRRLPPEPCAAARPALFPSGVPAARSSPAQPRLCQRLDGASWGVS

[7] = target: Beta-3 adrenergic receptor (Rattus norvegicus) (UniProt P26255); test: Antagonist activity at adrenergic beta-3 receptor in rat proximal colon assessed as colon motility; type: functional, tissue-based
Sequence of Beta-3 adrenergic receptor (Rattus norvegicus) (P26255 whole entry): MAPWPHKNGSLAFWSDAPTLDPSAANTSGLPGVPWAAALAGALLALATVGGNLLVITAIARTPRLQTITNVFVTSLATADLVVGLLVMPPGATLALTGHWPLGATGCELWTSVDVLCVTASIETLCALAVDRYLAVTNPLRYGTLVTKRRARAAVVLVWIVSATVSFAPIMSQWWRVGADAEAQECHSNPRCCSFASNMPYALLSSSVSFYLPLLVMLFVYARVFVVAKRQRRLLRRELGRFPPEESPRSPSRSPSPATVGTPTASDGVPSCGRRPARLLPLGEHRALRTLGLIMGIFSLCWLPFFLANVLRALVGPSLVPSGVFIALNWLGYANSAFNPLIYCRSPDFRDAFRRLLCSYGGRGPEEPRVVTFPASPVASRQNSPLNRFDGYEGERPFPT

[8] = target: T2, Beta-3 adrenergic receptor
Description: Agonist activity at human adrenergic beta3 receptor expressed in CHO cells assessed as [3H]cAMP levels by radiolabeled ligand based assay

[9] = target: T1, Peroxisome proliferator-activated receptor alpha (Mus musculus); test: Agonist activity at mouse PPARalpha receptor in monkey COS7 cells assessed as activation of CAT reporter gene at 2 uM by transactivation assay relative to Wy,14-643; type: functional, cell-based; conditions: COS-7

| inhibition [1] | inhibition [2] | Activity [3] | Activity [4] | Activity [5] | EC50 [6] | Activity [7] | EC50 [8] | Activity [9] | Structure (SMILES) |
| --- | --- | --- | --- | --- | --- | --- | --- | --- | --- |
| 28% | 1% | 1.6% | 1.8% | 1.5% | 2.7 nM | – | – | – | C[C@H](Oc1ccc(CCNC[C@H](O)c2ccccc2)cc1)C(=O)O (single isomer, unassigned) |
| 10% | 1% | 1.3% | 2% | 3.6% | 136 nM | Active | – | – | C[C@@H](Oc1ccc(CCNC[C@@H](O)c2ccccc2)cc1)C(=O)O (single isomer, unassigned) |
| 37% | 24% | 1.5% | 1.9% | 1.8% | 3.8 nM | – | – | – | CC(Oc1ccc(CCNCC(O)c2ccccc2)cc1)C(=O)O (racemic) |
| 6% | 2% | 1.1% | 1.5% | 2.6% | 235 nM | – | – | – | C[C@@H](Oc1ccc(CCNC[C@H](O)c2ccccc2)cc1)C(=O)O |

The remaining lines, values behind:

| Structure (SMILES) | inhibition [1] | inhibition [2] | Activity [3] | Activity [4] | Activity [5] | EC50 [6] | Activity [7] | EC50 [8] | Activity [9] |
| --- | --- | --- | --- | --- | --- | --- | --- | --- | --- |
| CC(C)(Oc1ccc(CCNC[C@H](O)c2ccccc2)cc1)C(=O)O | 8% | 1% | 1.3% | 1.5% | 1.5% | – | – | – | – |
| C[C@H](Oc1ccc(CCNC[C@@H](O)c2ccccc2)cc1)C(=O)O | 14% | 9% | 1% | 1% | 1.8% | 181 nM | Active | – | – |
| CNC[C@H](O)c1ccc(O)c(O)c1 [EPINEPHRINE] | – | – | – | – | – | 31 nM | – | 49 nM | – |
| CC(C)(Oc1ccc(Cl)cc1)C(=O)O | – | – | – | – | 86.5% | – | – | – | – |
| CC(C)(Oc1ccc(CCNCC(O)c2ccccc2)cc1)C(=O)O (racemic) | 18% | 24% | 2% | 1.7% | 1.8% | 4.9 nM | – | – | – |
| CCOC(=O)C(C)(C)Oc1ccc(Cl)cc1 | – | – | 12.6% | 11% | 89.9% | – | – | – | – |
| CC(C)(Oc1ccc(CCNC[C@@H](O)c2ccccc2)cc1)C(=O)O | 13% | 5% | 1.7% | 1.5% | 2.1% | – | – | – | – |
| Cc1cccc(Nc2cc(Cl)nc(SCC(=O)O)n2)c1C | – | – | – | – | – | – | – | – | 100% |
